Results as given in patent publication US20250195530A1, “POLQ INHIBITORS” (ASTRAZENECA AB, priority 2022, published 2025).
Where two headings read alike, the source gives them in different places.

System: DLD-1 BRCA2−/− cells
Test: Homologous recombination synthetic lethal inhibition of proliferation, DLD-1 BRCA2-/- (Cell Titre Glo 3D)
Assay type: cell-based
Conditions: Homo sapiens, read-out: POLQ PD Prolif Lumin BRCA2 −/− mean pIC50 (converted)
How it was run: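 Isogenic DLD-1 pair; BRCA2−/− seeded 3,000 cells/mL and read day 12, wt seeded 1,500 cells/mL and read day 7. 10-pt titration (top 10 μM, 3-fold), re-fed with compound day 6, 37 °C/5% CO2. CTG 3D endpoint; IC50 at 50% signal loss.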

[1] = DLD-1, 288 h, DLD-1 BRCA2−/− cells, 12 days
[2] = DLD-1, DLD-1 BRCA2 −/− cells, mean

Row | SMILES | IC50 [1] [nM] | IC50 [2] [nM]
1 | CC1(Oc2ncnc3c2nc(-c2ccc(OCCN4CCNCC4)cc2Cl)n3CCc2ccncc2)CC1 [Example L1, 8-(2-chloro-4-(2-(piperazin-1-yl)ethoxy)phenyl)-6-(1-methylcyclopropoxy)-9-(2-(pyridin-4-yl)ethyl)-9H-purine] | > 10000 | 
2 | CC1(Oc2ncnc3c2nc(-c2ccc(OCCN4CCNC(C)(C)C4=O)cc2Cl)n3Cc2ccccc2)CC1 [Example R16, 1-(2-(4-(9-benzyl-6-(1-methylcyclopropoxy)-9H-purin-8-yl)-3-chlorophenoxy)ethyl)-3,3-dimethylpiperazin-2-one] | 63.1 | 
3 | CC1(Oc2ncnc3c2nc(-c2ccc(OCCN4CCN[C@@H](CC#N)C4)cc2Cl)n3Cc2ccccc2)CC1 [Example R23, (S)-2-(4-(2-(4-(9-benzyl-6-(1-methylcyclopropoxy)-9H-purin-8-yl)-3-chlorophenoxy)ethyl)piperazin-2-yl)acetonitrile] | 63.1 | 
4 | Cc1nnc(Cn2c(-c3ccc(CC(N)=O)cc3Cl)nc3c(OC4(C)CC4)ncnc32)s1 [Example T1, 2-(3-chloro-4-(9-((5-methyl-1,3,4-thiadiazol-2-yl)methyl)-6-(1-methylcyclopropoxy)-9H-purin-8-yl)phenyl)acetamide] |  | > 10000
5 | Cc1nnc(Cn2c(-c3ccc(CC(N)=O)cc3Cl)nc3c(OC4(C)CC4)ncnc32)o1 [Example T2, 2-(3-chloro-4-(9-((5-methyl-1,3,4-oxadiazol-2-yl)methyl)-6-(1-methylcyclopropoxy)-9H-purin-8-yl)phenyl)acetamide] |  | > 10000
6 | Cc1ccnc(Cn2c(-c3ccc(N)cc3Cl)nc3c(OC4(C)CC4)ncnc32)c1 [Example T3, 3-chloro-4-(6-(1-methylcyclopropoxy)-9-((4-methylpyridin-2-yl)methyl)-9H-purin-8-yl)aniline] |  | 200
7 | Cc1ncc(Cn2c(-c3ccc(CC(N)=O)cc3Cl)nc3c(OC4(C)CC4)ncnc32)s1 [Example T5, 2-(3-chloro-4-(6-(1-methylcyclopropoxy)-9-((2-methylthiazol-5-yl)methyl)-9H-purin-8-yl)phenyl)acetamide] |  | > 7940
8 | Cc1nc(Cn2c(-c3ccc(CC(N)=O)cc3Cl)nc3c(OC4(C)CC4)ncnc32)cs1 [Example T6, 2-(3-chloro-4-(6-(1-methylcyclopropoxy)-9-((2-methylthiazol-4-yl)methyl)-9H-purin-8-yl)phenyl)acetamide] |  | 7940
9 | CC1(Oc2ncnc3c2nc(-c2ccc(CC(N)=O)cc2Cl)n3CCc2nccs2)CC1 [Example T7, 2-(3-chloro-4-(6-(1-methylcyclopropoxy)-9-(2-(thiazol-2-yl)ethyl)-9H-purin-8-yl)phenyl)acetamide] |  | > 10000
10 | CNC(=O)COc1ccc(-c2nc3c(OC4(C)CC4)ncnc3n2Cc2cncs2)c(Cl)c1 [Example T8, 2-(3-chloro-4-(6-(1-methylcyclopropoxy)-9-(thiazol-5-ylmethyl)-9H-purin-8-yl)phenoxy)-N-methylacetamide] |  | 5010
11 | CC1(Oc2ncnc3c2nc(-c2ccc(C(=O)O)cc2Cl)n3Cc2cccc(Cl)c2)CC1 [Example T11, 3-chloro-4-(9-(3-chlorobenzyl)-6-(1-methylcyclopropoxy)-9H-purin-8-yl)benzoic acid] |  | 794
12 | Cc1nnccc1Cn1c(-c2ccc(CC(N)=O)cc2Cl)nc2c(OC3(C)CC3)ncnc21 [Example T17, 2-(3-chloro-4-(6-(1-methylcyclopropoxy)-9-((3-methylpyridazin-4-yl)methyl)-9H-purin-8-yl)phenyl)acetamide] |  | > 10000
13 | Cc1cnnc(Cn2c(-c3ccc(CC(N)=O)cc3Cl)nc3c(OC4(C)CC4)ncnc32)c1 [Example T18, 2-(3-chloro-4-(6-(1-methylcyclopropoxy)-9-((5-methylpyridazin-3-yl)methyl)-9H-purin-8-yl)phenyl)acetamide] |  | > 10000
14 | Cc1cc(Cn2c(-c3ccc(CC(N)=O)cc3Cl)nc3c(OC4(C)CC4)ncnc32)ncn1 [Example T19, 2-(3-chloro-4-(6-(1-methylcyclopropoxy)-9-((6-methylpyrimidin-4-yl)methyl)-9H-purin-8-yl)phenyl)acetamide] |  | > 10000
15 | CC1(Oc2ncnc3c2nc(-c2ccc(CC(N)=O)cc2Cl)n3Cc2nnc(C3CC3)s2)CC1 [Example T20, 2-(3-chloro-4-(9-((5-cyclopropyl-1,3,4-thiadiazol-2-yl)methyl)-6-(1-methylcyclopropoxy)-9H-purin-8-yl)phenyl)acetamide] |  | 2510
16 | CC1(Oc2ncnc3c2nc(-c2ccc(CC(N)=O)cc2Cl)n3Cc2nnc(C3CC3)o2)CC1 [Example T21, 2-(3-chloro-4-(9-((5-cyclopropyl-1,3,4-oxadiazol-2-yl)methyl)-6-(1-methylcyclopropoxy)-9H-purin-8-yl)phenyl)acetamide] |  | > 10000

Row | SMILES | IC50 [1] [nM] | IC50 [2] [nM]
17 | COc1cnnc(Cn2c(-c3ccc(CC(N)=O)cc3Cl)nc3c(OC4(C)CC4)ncnc32)c1 [Example T22, 2-(3-chloro-4-(9-((5-methoxypyridazin-3-yl)methyl)-6-(1-methylcyclopropoxy)-9H-purin-8-yl)phenyl)acetamide] |  | 3980
18 | CC1(Oc2ncnc3c2nc(-c2ccc(CC(N)=O)cc2Cl)n3Cc2nc(C3CC3)no2)CC1 [Example T23, 2-(3-chloro-4-(9-((3-cyclopropyl-1,2,4-oxadiazol-5-yl)methyl)-6-(1-methylcyclopropoxy)-9H-purin-8-yl)phenyl)acetamide] |  | 1260
19 | Cc1nc(Cn2c(-c3ccc(CC(N)=O)cc3Cl)nc3c(OC4(C)CC4)ncnc32)sc1C [Example T24, 2-(3-chloro-4-(9-((4,5-dimethylthiazol-2-yl)methyl)-6-(1-methylcyclopropoxy)-9H-purin-8-yl)phenyl)acetamide] |  | 794
20 | Cc1nc(C)c(Cn2c(-c3ccc(CC(N)=O)cc3Cl)nc3c(OC4(C)CC4)ncnc32)s1 [Example T25, 2-(3-chloro-4-(9-((2,4-dimethylthiazol-5-yl)methyl)-6-(1-methylcyclopropoxy)-9H-purin-8-yl)phenyl)acetamide] |  | 1000
21 | Cc1ncsc1CCn1c(-c2ccc(CC(N)=O)cc2Cl)nc2c(OC3(C)CC3)ncnc21 [Example T26, 2-(3-chloro-4-(6-(1-methylcyclopropoxy)-9-(2-(4-methylthiazol-5-yl)ethyl)-9H-purin-8-yl)phenyl)acetamide] |  | 316
22 | Cc1noc(C)c1Cn1c(-c2ccc(CC(N)=O)cc2Cl)nc2c(OC3(C)CC3)ncnc21 [Example T27, 2-(3-chloro-4-(9-((3,5-dimethylisoxazol-4-yl)methyl)-6-(1-methylcyclopropoxy)-9H-purin-8-yl)phenyl)acetamide] |  | > 10000
23 | CNC(=O)COc1ccc(-c2nc3c(OC4(C)CC4)ncnc3n2Cc2ncc(C)s2)c(Cl)c1 [Example T28, 2-(3-chloro-4-(6-(1-methylcyclopropoxy)-9-((5-methylthiazol-2-yl)methyl)-9H-purin-8-yl)phenoxy)-N-methylacetamide] |  | 631
24 | CNS(=O)(=O)c1ccc(-c2nc3c(OC4(C)CC4)ncnc3n2Cc2cc(C)ccn2)c(Cl)c1 [Example T30, 3-chloro-N-methyl-4-(6-(1-methylcyclopropoxy)-9-((4-methylpyridin-2-yl)methyl)-9H-purin-8-yl)benzenesulfonamide] |  | 631
25 | Cc1cnn(C)c1Cn1c(-c2ccc(CC(N)=O)cc2Cl)nc2c(OC3(C)CC3)ncnc21 [Example T31, 2-(3-chloro-4-(9-((1,4-dimethyl-1H-pyrazol-5-yl)methyl)-6-(1-methylcyclopropoxy)-9H-purin-8-yl)phenyl)acetamide] |  | > 10000
26 | Cc1cc(Cn2c(-c3ccc(CC(N)=O)cc3Cl)nc3c(OC4(C)CC4)ncnc32)n(C)n1 [Example T32, 2-(3-chloro-4-(9-((1,3-dimethyl-1H-pyrazol-5-yl)methyl)-6-(1-methylcyclopropoxy)-9H-purin-8-yl)phenyl)acetamide] |  | 2000
27 | Cc1nn(C)cc1Cn1c(-c2ccc(CC(N)=O)cc2Cl)nc2c(OC3(C)CC3)ncnc21 [Example T33, 2-(3-chloro-4-(9-((1,3-dimethyl-1H-pyrazol-4-yl)methyl)-6-(1-methylcyclopropoxy)-9H-purin-8-yl)phenyl)acetamide] |  | > 10000
28 | CC1(Oc2ncnc3c2nc(-c2ccc(CC(N)=O)cc2Cl)n3Cc2ccnc(C(F)(F)F)c2)CC1 [Example T35, 2-(3-chloro-4-(6-(1-methylcyclopropoxy)-9-((2-(trifluoromethyl)pyridin-4-yl)methyl)-9H-purin-8-yl)phenyl)acetamide] |  | 2510
29 | CC1(Oc2ncnc3c2nc(-c2ccc(CC(N)=O)cc2Cl)n3Cc2cc(C(F)(F)F)ccn2)CC1 [Example T36, 2-(3-chloro-4-(6-(1-methylcyclopropoxy)-9-((4-(trifluoromethyl)pyridin-2-yl)methyl)-9H-purin-8-yl)phenyl)acetamide] |  | 501
30 | CC1(Oc2ncnc3c2nc(-c2ccc(CC(N)=O)cc2Cl)n3Cc2cccnc2C(F)(F)F)CC1 [Example T37, 2-(3-chloro-4-(6-(1-methylcyclopropoxy)-9-((2-(trifluoromethyl)pyridin-3-yl)methyl)-9H-purin-8-yl)phenyl)acetamide] |  | > 10000
31 | CC1(Oc2ncnc3c2nc(-c2ccc(CC(N)=O)cc2Cl)n3Cc2ccc(C(F)(F)F)nc2)CC1 [Example T38, 2-(3-chloro-4-(6-(1-methylcyclopropoxy)-9-((6-(trifluoromethyl)pyridin-3-yl)methyl)-9H-purin-8-yl)phenyl)acetamide] |  | 6310
32 | CC1(Oc2ncnc3c2nc(-c2ccc(CC(N)=O)cc2Cl)n3Cc2cncc(C#N)c2)CC1 [Example T39, 2-(3-chloro-4-(9-((5-cyanopyridin-3-yl)methyl)-6-(1-methylcyclopropoxy)-9H-purin-8-yl)phenyl)acetamide] |  | 6310
